Experimental data as given in US10300143B2, “Compositions for treating cancer and methods for making the same” (THE BRIGHAM AND WOMEN'S HOSPITAL, INC., priority 2012, dated 2019).
Entries after “also recorded” stand apart in the source; their conditions may differ.

How the values were obtained:
[1] = Insulin tolerance test using PI103-SNPs; format: in vivo, mice (murine 4T1 breast cancer model); conditions: 5 mg/kg single dose, insulin 0.75 U/kg 1 hour later, glucose 45 min after insulin
Procedure: Random fed mice (murine 4T1 breast cancer model) were injected with a single dose of Empty nanoparticles (Control), Free PI-103 (5 mg/kg) and PI103-SNPs via tail vain injections. Freshly prepared Insulin solution (0.75 U/Kg) in 0.1 ml 0.9% NaCl was injected intraperitoneally to mice 1 hour after the drug administration. The blood glucose levels were measured before and 45 min after the insulin injections using glucometer.

[2] = test system: 4T1 murine breast cancer cell line; assay: Cell viability (MTS) assay; format: cell-based; conditions: Mus musculus
Procedure: (§1) 4T1 and MDA MB 468 breast cancer cells were cultured in RPMI, 4306 ovarian cancer cells were cultured in DMEM, supplemented with 10% FBS and 1% of Antibiotic-Antimycotic 100× solution. 4×10^3 Cells were seeded into 96-well flat-bottomed plates. Free drug or drug loaded nanoparticles (normalized to equivalent amounts of free drug) were added in triplicate in each 96-well plate and then plates were incubated in 5% CO^2 atmosphere at 37° C. After desired time period of incubation, cells were washed and incubated with 100 μL phenol-red free medium (without FBS) containing 20 μl of the CellTiter 96 Aqueous One Solution reagents (PROMEGA, WI). After 2 hours incubation, the absorbance in each well was recorded.
(§2) 4T1 and MDA MB 468 breast cancer cells were cultured in RPMI, 4306 ovarian cancer cells were cultured in DMEM, supplemented with 10% FBS and 1% of Antibiotic-Antimycotic 100× solution (Invitrogen, 15240-062). 4×10^3 Cells were seeded into 96-well flat-bottomed plates. Free drug or drug loaded nanoparticles (normalized to equivalent amounts of free drug) was added in triplicate in each 96-well plate at appropriate concentrations (1, 10, 100 nM and 1, 10, and […]) and then plates were incubated in 5% CO2 atmosphere at 37° C. After desired time period of incubation, cells were washed and incubated with […] phenol-red free medium (without FBS) containing […] of the CellTiter 96 Aqueous One Solution reagents (Promega, WI). After 2 hours incubation in a 5% CO2 atmosphere at 37° C., the absorbance in each well was recorded at 490 nm using an Epoch plate reader (Biotek instruments, VT). The absorbance reflects the number of surviving cells. Blanks were subtracted from all data and results analyzed using GraphPad Prism™ software (GraphPad, San Diego, Calif.). Each experiment was independently repeated thrice and data shown is mean±SE of n=3.

[3] = test system: PI3K-overexpressing 4306 ovarian cancer cell line; assay: Cell viability (MTS) assay; format: cell-based
Procedure: as §1, §2

[4] = test system: MDA-MB-468 human breast cancer cell line; assay: Cell viability (MTS) assay; format: cell-based
Procedure: as §1, §2

[5] = test system: phospho AKT, phospho mTOR, phospho 4EBP in 4T1 tumors; assay: Western blot assay of in vivo 4T1 tumor samples; set-up: species or system BALB/c mice; conditions: single injection 5 mg/kg, 72 hours
Procedure: For animal tissue, tumor stored in −80° C. were pulverized in a mortar and pestle using liquid nitrogen, then treated with RIPA buffer to extract the protein. Amount of protein was measured by BCA assay and equal amount of protein lysates were electrophoresed on a polyacrylamide gel, then transferred to polyvinylidene difluoride membrane, (BIO-RAD) and blocked in with 5% milk solution. Then membranes were incubated with appropriate concentration of primary antibody overnight at 4° C., followed by horseradish peroxidase-conjugated secondary antibody for 1 hour. Detection was done using G-box from SYNGENE and densitometric quantification was done by IMAGE-J software.
For animal tissue, tumor stored in −80° C. were pulverized in a mortar and pestle using liquid nitrogen, then treated with RIPA buffer to extract the protein. Amount of protein was measured by BCA assay and equal amount of protein lysates were electrophoresed on a polyacrylamide gel, then transferred to polyvinylidene difluoride membrane, (Bic-Rad) and blocked in with 5% milk scullion. Then membranes were incubated with appropriate concentration of primary antibody (all antibodies from Cell Signalling Technology) overnight at 4° C., followed by horseradish peroxidase-conjugated secondary antibody for 1 hour. Detection was done using G-box from Syngene and densitometric quantification was done by image J™ software.

4T1 breast cancer tumors = assay: Efficacy study of SNPs in murine 4T1 breast cancer model; format: in vivo, BALB/c mice; conditions: 5 mg/kg PI103 equivalent, 3 injections every other day
Procedure: 4T1 breast cancer cells ([…]) were implanted subcutaneously in the flanks of 4-week-old BALB/c mice. The drug therapy was started on day 9. The drug therapy consisted of administration of PBS (for Control group), free drug (5 mg/kg) and SNPs (5 mg/kg). For PI103-SNPs, the drug therapy also consisted iRGD-PI103-SNPs group (5 mg/kg). The tumor volumes and body weights were monitored on every alternate day for 11 days.
The drug therapy was started on day 9. For PI828-SNPs, the drug therapy consisted of administration of PBS (for Control group), free PI-828 (5 mg/kg) and PI828-SNPs (5 mg/kg). For PI103-SNPs, the drug therapy consisted of administration of PBS (for control group), free PI-103 (5 mg/kg) and PI103-SNPs (5 mg/kg) and 1RGD-PI103-SNPs (5 mg/kg) (administered by tail-vain injection). The tumor volumes and body weights were monitored on every alternate day for 11 days. […] The animals were sacrificed when the average tumor volume of the control exceeded 2000 mm3 in the control group.

PI3K = conditions: cited from earlier work
[6] = test system: phosphorylation of Akt in 4T1 cells; assay: Western blot assay of phospho AKT in cells; format: cell-based, murine
Procedure: The protein was collected and protein lysates were electrophoresed. Then membranes were incubated with Phospho AKT, total AKT and actin antibodies overnight at 4° C. After appropriate amount of washing with TBST, membranes were incubated with horseradish peroxidase-conjugated secondary antibody for 1 hour. Detection was done using G-box (Syngene) and densitometric quantification was done by image J software. […] When cells were 70% confluent, they were incubated in serum free media for 6 hours. Then, free drug or equivalent amount of drug loaded nanoparticles were added in appropriate concentration in serum deprived media (1% FBS). […] Amount of protein was measured by […] and equal amount of protein lysates were electrophoresed on a 4-20% polyacrylamide gel, transferred to polyvinylidene difluoride membrane, and blocked in TBST-T with 5% dry milk. Then membranes were incubated in TBST with Phospho AKT (S473) (1:500 dilution), total AKT (1:1000 dilution), and actin (1:2000 dilution) antibodies (all antibodies from Cell Signalling Technology) overnight at 4° C. After appropriate amount of washing with TBST, membranes were incubated with horseradish peroxidase-conjugated secondary antibody for 1 hour. Detection was done using G-Box™ from Syngene and densitometric quantification was done by image J™ software.

[7] = cited from earlier work

Oc1cccc(-c2nc(N3CCOCC3)c3oc4ncccc4c3n2)c1 [PI103]
blood glucose level after insulin injection [1]: only a minor decrease in blood glucose level | IC50 ([2]; 48 hours): 122 ± 3.15 nM | IC50 ([2]; 72 hours): 67.3 ± 3.4 nM | IC50 ([3]; 48 hours): 286 ± 45 nM | IC50 ([3]; 72 hours): 392 ± 49.3 nM | IC50 ([4]; 48 hours): 445 ± 67 nM | IC50 ([4]; 72 hours): 312 ± 49 nM | intratumoral Akt phosphorylation [5]: intratumoral Akt phosphorylation was inhibited | tumor growth (4T1 breast cancer tumors): tumor growth inhibition relative to PBS-treated controls, but tumor rebound was observed after the treatment was stopped | PI3K inhibitory potency (PI3K): excellent potency in the low nanomolar range; also recorded: more potent | phosphorylation of AKT after transient exposure ([6]; 4 hours exposure, wash, followed to 48 hours): rebound increase in phosphorylation of AKT | basal phosphorylation of Akt ([6]; equimolar PI103 (5 pM), continuous incubation, 48 hours): inhibited basal phosphorylation of Akt even at 48 hours of continuous incubation | aqueous solubility [7]: limited aqueous solubility
